Reference: patent publication EP4803519A1, “NOVEL PRMT5 INHIBITOR AND USE THEREOF” (Shanghai Apeiron Therapeutics Company Limited, priority 2023, dated 2025)

Key:
Format in all cases: cell-based
[1] = test system: HCT-116 MTAP(-/-)deleted cells; test: Inhibitory activity on proliferation of HCT-116 MTAP(-/-)deleted cells (Cell-Titer Glo); conditions: Homo sapiens, 144 h, incubated 6 d, 0-1,000 nM
How it was run: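 HCT-116 MTAP(-/-) cells in RPMI 1640 with 10% FBS were seeded overnight, then exposed to compound (10 points, 2.5-fold dilutions from 1,000 nM; 0.2% DMSO) for 6 d at 37 °C. Viability was read by CellTiter-Glo luminescence.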

[2] = test system: HCT-116 wild-type cells; test: Inhibitory activity on proliferation of HCT-116 wild-type cells (Cell-Titer Glo); conditions: Homo sapiens, 144 h, incubated 6 d, 0-10,000 nM
How it was run: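 HCT-116 wild-type cells in RPMI-1640 with 10% FBS were plated overnight, then exposed to compound for 6 d at 37°C (0–10,000 nM final, 2.5-fold, 10 points, 0.2% DMSO). Viability was read by Cell-Titer Glo luminescence.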

[3] = test system: LU99 MTAP(-/-)deleted cells; test: Inhibitory activity on proliferation of LU99 MTAP(-/-)deleted cells (Cell-Titer Glo); conditions: Homo sapiens, Lu-99, 144 h, incubated 6 d, 0-1,000 nM
Experimental: (§1) Materials and cells: LU99 MTAP deleted cell line was purchased from Kyinno Biotechnology (China); cell culture medium and fetal bovine serum were purchased from Thermo Fisher Scientific (USA); 384-well plates were purchased from PerkinElmer (USA); Cell-Titer Glo kits were purchased from Promega (USA).
Cell culture: LU99 MTAP(-/-)deleted cells were cultured with medium containing 10% fetal bovine serum at 37°C in 5% carbon dioxide. Only cells in the logarithmic growth phase could be used for the test.
(§2) Test of inhibitory activity on cell proliferation: The Cell-Titer Glo kit was used to test the proliferation inhibitory activity of the compounds on LU99 MTAP(-/-)deleted cells. The cell concentration was adjusted, rendering that cells were inoculated into a 384-well plate at 40 µL per well and incubated overnight at 37°C and 5% carbon dioxide. 40 nL of the compound was added to each well to reach a final concentration of 0-1,000 nM (starting concentration 1,000 nM, 2.5-fold dilution, 10 points), and the cell plate with 0.2% DMSO content was incubated at 37°C and 5% carbon dioxide for 6 d. 40 µL of Cell-Titer Glo reagent was added to test cell viability.

[4] = test system: LU99 MTAP overexpressing cells; test: Inhibitory activity on proliferation of LU99 MTAP overexpressing cells (Cell-Titer Glo); conditions: Homo sapiens, Lu-99, 144 h, incubated 6 d, 0-10,000 nM
Experimental: as §1, with “overexpressing” for “deleted”
Cell culture: LU99 MTAP overexpressing cells were cultured with medium containing 10% fetal bovine serum at 37°C in 5% carbon dioxide. Only cells in the logarithmic growth phase could be used for the test.
as §2, with “MTAP overexpressing” for “MTAP(-/-)deleted”, “0-10,000” for “0-1,000”, “10,000” for “1,000”

Compound | IC50 [1] [nM] | IC50 [2] [nM] | IC50 [3] [nM] | IC50 [4] [nM]
CN(C(=O)c1cc2c(cc1F)nc(N)c1cnn(C)c12)C1COC(C)(C)c2cc(Br)ccc21 (stereo not shown) [Example 13, (4-Amino-7-fluoro-1-methylpyrazolo[4,5-c]quinolin-8-yl)-N-(7-bromo-1,1-dimethylisochroman-4-yl)-N-methylformamide] | 10.9 | 720 | 18.9 | 1070
CN(C(=O)c1ccc2nc(N)c3cnn(C)c3c2c1)C1COC(C)(C)c2cc(-c3cccc4c3cnn4C)ccc21 (stereo not shown) [Example 46, 4-amino-N-(1,1-dimethyl-7-(1-methyl-1H-indazol-4-yl)isochroman-4-yl)-N,1-dimethyl-1H-pyrazolo[4,3-c]quinoline-8-carboxamide] | 4.3 | 1100 | 7.9 | 1050
CN(C(=O)c1cc2c(cc1C(F)(F)F)nc(N)c1cnn(C)c12)[C@@H]1COC(C)(C)c2cc(C(F)(F)F)ccc21 [Example 38, N-[(4S)-1,1-dimethyl-7-(trifluoromethyl)isochroman-4-yl] [4-amino-1-methyl-7-(trifluoromethyl)pyrazolo[4,5-c]quinolin-8-yl]-N-methylformamide] | 8.1 | 1470 | 15 | 2050
CN(C(=O)c1ccc2nc(N)c3cnn(C)c3c2c1)[C@@H]1COC(C)(C)c2cc(N3CCOCC3)ccc21 [Example 33, (S)-4-amino-N-(1,1-dimethyl-7-morpholinoisochroman-4-yl)-N,1-dimethyl-1H-pyrazolo[4,3-c]quinoline-8-carboxamide] | 5.3 | 1340 | 8.6 | 2260
CN(C(=O)c1ccc2nc(N)c3c(cnn3C)c2c1)[C@@H]1COC(C)(C)c2cc(C(F)(F)F)ccc21 [Example 21, (S)-4-amino-N-(1,1-dimethyl-7-(trifluoromethyl)isochroman-4-yl)-N,3-dimethyl-3H-pyrazolo[3,4-c]quinoline-8-carboxamide] | 20.8 | 4370 | 33.7 | 2820
CN(C(=O)c1ccc2nc(N)c3cnn(C)c3c2c1)[C@@H]1COC(C)(C)c2cc(N3CCNCC3)ccc21 [Example 83] | 103 | 10500 | 102 | 12700
CN(C(=O)c1cc2c3c(c(N)nc2cn1)COC3)[C@H]1COC(C)(C)c2cc(C(F)(F)F)ccc21 [Example 25, (R)-4-Amino-N-(1,1-dimethyl-7-(trifluoromethyl)isochroman-4-yl)-N-methyl-1,3-dihydrofuro[3,4-c][1,7]naphthyridine-8-carboxamide] | 817 | > 10000 | 503 | > 10000
CN(C(=O)c1ccc2nc(N)c3c(c2c1)CCOC3)[C@@H]1COC(C)(C)c2cc(C(F)(F)F)ccc21 [Example 23] | 99.4 | 4860 | 79.5 | 3170
CN(C(=O)c1cc2c3c(c(N)nc2cn1)COC3)[C@H]1COC2(CCC2)c2cc(C(F)(F)F)ccc21 [Example 45, (R)-4-amino-N-methyl-N-(7'-(trifluoromethyl)spiro[cyclobutane-1,1'-isochroman]-4'-yl)-1,3-dihydrofuro[3,4-c][1,7]naphthyridine-8-carboxamide] | 874 | > 10000 | 944 | > 10000
CN(C(=O)c1ccc2nc(N)c3cnccc3c2c1)[C@@H]1COC(C)(C)c2cc(C(F)(F)F)ccc21 [Example 37, (S)-5-amino-N-(1,1-dimethyl-7-(trifluoromethyl)isochroman-4-yl)-N-methylbenzo[c][2,7]naph thyridine-9-carboxamide] | 33.4 | 4100 | 36.4 | 810
CN(C(=O)c1ccc2nc(N)c3cnn(C)c3c2c1)C1COC(C)(C)c2cc(-n3cc(C(F)(F)F)cn3)ccc21 (stereo not shown) [Example 47, 4-amino-N-(1,1-dimethyl-7-(4-(trifluoromethyl)-1H-pyrazol-1-yl)isochroman-4-yl)-N,1-dimethyl-1H-pyrazolo[4,3-c]quinoline-8-carboxamide] | 5.9 | 1600 | 7.5 | 1380
CN(C(=O)c1ccc2nc(N)c3cnn(C)c3c2c1)C1COC(C)(C)c2cc(C(F)(F)F)ncc21 (stereo not shown) [Example 43, (4-Amino-1-methylpyrazolo[4,5-c]quinolin-8-yl)-N-[1,1-dimethyl-7-(trifluoromethyl)(1,4-dihydro-3H-pyrano[4,5-c]pyridin-4-yl)]-N-methylformamide] | 9.4 | 2130 | 12.3 | 2570
CN(C(=O)c1ccc2nc(N)c3cnn(C)c3c2c1)C1COC(C)(C)c2nc(C(F)(F)F)ccc21 (stereo not shown) [Example 39] | 5.2 | 1140 | 8.4 | 1290
CN(C(=O)c1cc2c(cn1)nc(N)c1cnn(C)c12)[C@H]1COC(C)(C)c2cc(C(F)(F)F)ccc21 [Example 27, (R)-4-amino-N-(1,1-dimethyl-7-(trifluoromethyl)isochroman-4-yl)-N,1-dimethyl-1H-pyrazolo[4,3-c][1,7]naphthyridine-8-carboxamide] | 74 | > 10000 | 51.9 | 9590
CN(C(=O)c1cc2c3c(c(N)nc2cn1)COC3)C1COC(C)(C)c2cc(-c3ccnn3C)ccc21 (stereo not shown) [Example 9, (4-Amino(1,3-dihydrofuro[3,4-d]pyrido[5,4-b]pyridin-8-yl))-N-[1,1-dimethyl-7-(1-methylpyrazol-5-yl)isochroman-4-yl]-N-methylformamide] | 45.4 | > 10000 | 85 | 9790
CN(C(=O)c1ccc2nc(N)c3ccncc3c2c1)C1COC(C)(C)c2cc(C(F)(F)F)ccc21 (stereo not shown) [Example 22, 5-amino-N-(1,1-dimethyl-7-(trifluoromethyl)isochroman-4-yl)-N-methylbenzo[c][2,6]naph thyridine-9-carboxamide] | 13.4 | 1250 | 25.5 | 771
CN1CCN(c2ccc3c(c2)C(C)(C)OCC3N(C)C(=O)c2ccc3nc(N)c4cnn(C)c4c3c2)CC1 (stereo not shown) [Example 80] | 9.4 | 3850 | 16.8 | 3660
CN(C(=O)c1ccc2nc(N)c3c(c2c1)CCO3)C1COC(C)(C)c2cc(C(F)(F)F)ccc21 (stereo not shown) [Example 4, 4-Amino-N-(1,1-dimethyl-7-(trifluoromethyl)isochroman-4-yl)-N-methyl-1,2-dihydrofuro[2,3-c]quinoline-8-carboxamide] | 1090 | 8140 | 2260 | 3270
CN(C(=O)c1ccc2nc(N)c3c(c2c1)COC3)C1COC(C)(C)c2cc(-c3ccnn3C)ccc21 (stereo not shown) [Example 10, 4-Amino-N-(1,1-dimethyl-7-(1-methyl-1H-pyrazol-5-yl)isochroman-4-yl)-N-methyl-1,3-dihydrofuro[3,4-c]quinoline-8-carboxamide] | 10.1 | 2060 | 18.3 | 3740
